Measurements published in US20250064789A1, “KETOAMIDE DERIVATIVES AND PHARMACEUTICAL USES THEREOF” (priority 2022, published 2025).
Where two headings read alike, the source gives them in different places.

Molecular target: recombinant SARS-CoV-2 M^pro (Severe acute respiratory syndrome coronavirus 2 (2019-nCoV) (SARS-CoV-2), UniProt P0DTD1)
Assay: Inhibition of SARS-CoV-2 M^pro enzyme activity (fluorescent substrate assay)
Assay type: biochemical
Conditions: inhibition of SARS-CoV-2 M^pro enzyme activity, read-out: IC50

Row | Structure (SMILES) | IC50 (values in nM) | IC50 (values given in μM)
1 | CC(C)(NC(=O)C(=O)c1ccccc1)C(=O)N[C@H](Cc1ccccc1)C(=O)C(=O)NCc1ccccn1 [Compound 179] | 14.5 ± 1.9 nM | 
2 | CC(C)(NC(=O)[C@H](NC(=O)c1cnccn1)C1CCCCC1)C(=O)N[C@H](Cc1ccccc1)C(=O)C(=O)NCc1ccccn1 [Compound 180] | 31.8 ± 0.9 nM | 
3 | CC(C)(NC(=O)c1cc(Cl)cc(OC(F)(F)F)c1)C(=O)N[C@H](Cc1ccccc1)C(=O)C(=O)NCc1ccccn1 [Compound 181] | 16.6 ± 0.3 nM | 
4 | CC(C)(NC(=O)c1ccc2c(c1)OC(F)(F)O2)C(=O)N[C@H](Cc1ccccc1)C(=O)C(=O)NCc1ccccn1 [Compound 182] | 22.4 ± 0.5 nM | 
5 | COc1ccc(OC(F)(F)F)cc1C(=O)NC(C)(C)C(=O)N[C@H](Cc1ccccc1)C(=O)C(=O)NCc1ccccn1 [Compound 183] | 21.9 ± 0.3 nM | 
6 | CC(C)(NC(=O)c1ccc(F)c(OC(F)(F)F)c1)C(=O)N[C@H](Cc1ccccc1)C(=O)C(=O)NCc1ccccn1 [Compound 184] | 13.3 ± 0.2 nM | 
7 | CC(C)(NC(=O)C1(F)CCCCC1)C(=O)N[C@H](Cc1ccccc1)C(=O)C(=O)NCc1ccccn1 [Compound 185] | 9.7 ± 0.7 nM | 
8 | CC(C)(NC(=O)c1ccc(F)cc1)C(=O)N[C@H](Cc1ccccc1)C(=O)C(=O)NCc1ccccn1 [Compound 186] | 18.6 ± 1.1 nM | 
9 | O=C(NCc1ccccn1)C(=O)[C@@H](Cc1ccccc1)NC(=O)C1(NC(=O)C2CCC(F)(F)CC2)CCC1 [Compound 187] | 10.7 ± 0.5 nM | 
10 | O=C(NCc1ccccn1)C(=O)[C@@H](Cc1ccccc1)NC(=O)C1(NC(=O)[C@H]2CC[C@@H](F)CC2)CCC1 [Compound 188] | 79 ± 8.8 nM | 
11 | CN1CCC(C(=O)NC2(C(=O)N[C@H](Cc3ccccc3)C(=O)C(=O)NCc3ccccn3)CCC2)CC1=O (stereo partly shown) [Compound 189] |  | > 2500 nM
12 | O=C(NCc1ccccn1)C(=O)[C@@H](Cc1ccccc1)NC(=O)C1(NC(=O)C2CC(=O)N(c3ccccc3)C2)CCC1 (stereo partly shown) [Compound 190] | 29.6 nM | 
13 | O=C(NCc1ccccn1)C(=O)[C@@H](Cc1ccccc1)NC(=O)C1(NC(=O)C2CCOCC2)CCC1 [Compound 191] | 73 ± 4.5 nM | 
14 | CC1(C)C(C(=O)NC2(C(=O)N[C@H](Cc3ccccc3)C(=O)C(=O)NCc3ccccn3)CCC2)C1(C)C [Compound 192] | 25.4 ± 0.9 nM | 
15 | O=C(NCc1ccccn1)C(=O)[C@@H](Cc1ccccc1)NC(=O)C1(NC(=O)C2CCCC(F)(F)C2)CCC1 (stereo partly shown) [Compound 193] | 16.7 ± 0.4 nM | 
16 | CN(C(=O)C1CCC(F)(F)CC1)C1(C(=O)N[C@H](Cc2ccccc2)C(=O)C(=O)NCc2ccccn2)CCC1 [Compound 194] | 387 ± 30 nM | 
17 | O=C(NCc1ccccn1)C(=O)[C@@H](Cc1ccccc1)NC(=O)C1(NC(=O)C2CCCCCC2)CCC1 [Compound 195] | 30.8 ± 0.1 nM | 
18 | O=C(CC12CC3CC(CC(C3)C1)C2)NC1(C(=O)N[C@H](Cc2ccccc2)C(=O)C(=O)NCc2ccccn2)CCC1 [Compound 196] | 14.5 ± 0.1 nM | 
19 | O=C(CC1CCCC1)NC1(C(=O)N[C@H](Cc2ccccc2)C(=O)C(=O)NCc2ccccn2)CCC1 [Compound 197] | 13.8 ± 0.8 nM | 
20 | O=C(NCc1ccccn1)C(=O)[C@@H](Cc1ccccc1)NC(=O)C1(NC(=O)c2cc(C(F)(F)F)[nH]n2)CCC1 [Compound 198] | 18.1 ± 2.7 nM | 
21 | O=C(NCc1ccccn1)C(=O)[C@@H](Cc1ccccc1)NC(=O)C1(NC(=O)C23CC4CC(CC(O)(C4)C2)C3)CCC1 [Compound 199] | 52.7 ± 1 nM | 
22 | O=C(NCc1ccccn1)C(=O)[C@@H](Cc1ccccc1)NC(=O)C1(NC(=O)c2[nH]nc3c2COCC3)CCC1 [Compound 200] | 219.3 ± 0.6 nM | 
23 | O=C(NCc1ccccn1)C(=O)[C@@H](Cc1ccccc1)NC(=O)C1(NC(=O)[C@H]2CC[C@H](c3ccc(Cl)cc3)CC2)CCC1 [Compound 201] | 653.4 ± 4.1 nM | 

Row | Structure (SMILES) | IC50 (values in nM) | IC50 (values given in μM)
24 | O=C(NCc1ccccn1)C(=O)[C@@H](Cc1ccccc1)NC(=O)C1(NC(=O)[C@@H]2C[C@@H]3[C@H](C2)C3(F)F)CCC1 [Compound 202] | 17.4 ± 1.2 nM | 
25 | O=C(NCc1ccccn1)C(=O)[C@@H](Cc1ccccc1)NC(=O)C1(NC(=O)C23CC4(F)CC(F)(CC(F)(C4)C2)C3)CCC1 [Compound 203] | 19.6 ± 0.6 nM | 
26 | O=C(NCc1ccccn1)C(=O)[C@@H](Cc1ccccc1)NC(=O)C1(NC(=O)C2CC(F)(F)C2)CCC1 [Compound 204] | 36.7 ± 0.9 nM | 
27 | O=C(NCc1ccccn1)C(=O)[C@@H](Cc1ccccc1)NC(=O)C1(NC(=O)C2CCC(O)(C(F)(F)F)CC2)CCC1 (stereo partly shown) [Compound 205] | 23.9 ± 0.9 nM | 
28 | CC(C)[C@@H]1CC[C@@H](C)C[C@H]1OCC(=O)NC1(C(=O)N[C@H](Cc2ccccc2)C(=O)C(=O)NCc2ccccn2)CCC1 [Compound 206] | 18 ± 0.5 nM | 
29 | O=C(COC1CCCC1)NC1(C(=O)N[C@H](Cc2ccccc2)C(=O)C(=O)NCc2ccccn2)CCC1 [Compound 207] | 46.1 ± 0.9 nM | 
30 | N#Cc1ccc(OCC(=O)NC2(C(=O)N[C@H](Cc3ccccc3)C(=O)C(=O)NCc3ccccn3)CCC2)cc1 [Compound 208] | 37.1 ± 1.7 nM | 
31 | O=C(CC1CC(F)(F)C1)NC1(C(=O)N[C@H](Cc2ccccc2)C(=O)C(=O)NCc2ccccn2)CCC1 [Compound 209] | 12.2 ± 0.2 nM | 
32 | O=C(CC1CCOCC1)NC1(C(=O)N[C@H](Cc2ccccc2)C(=O)C(=O)NCc2ccccn2)CCC1 [Compound 210] | 20.7 ± 1.1 nM | 
33 | O=C(NCc1ccccn1)C(=O)[C@@H](Cc1ccccc1)NC(=O)C1(NC(=O)C2C3COCC32)CCC1 (stereo partly shown) [Compound 211] | 57.7 ± 3 nM | 
34 | CC1=NN=C(C)C1C(=O)NC1(C(=O)N[C@H](Cc2ccccc2)C(=O)C(=O)NCc2ccccn2)CCC1 [Compound 212] | 346 ± 9.9 nM | 
35 | O=C(CCC(F)(F)F)NC1(C(=O)N[C@H](Cc2ccccc2)C(=O)C(=O)NCc2ccccn2)CCC1 [Compound 213] | 41.4 ± 0.8 nM | 
36 | O=C(NCc1ccccn1)C(=O)[C@@H](Cc1ccccc1)NC(=O)C1(NC(=O)C2CC3CCC2C3)CCC1 (stereo partly shown) [Compound 214] | 17.4 ± 0.5 nM | 
37 | O=C(NCc1ccccn1)C(=O)[C@@H](Cc1ccccc1)NC(=O)C1(NC(=O)c2ccc(F)cc2)CCC1 [Compound 215] | 13.7 ± 0.9 nM | 
38 | O=C(NCc1ccccn1)C(=O)[C@@H](Cc1ccccc1)NC(=O)[C@@H](Cc1ccccc1)NC(=O)[C@H]1CC[C@H](C(F)(F)F)CC1 [Compound 216] | 16.3 ± 0.4 nM | 
39 | O=C(NCc1ccccn1)C(=O)[C@@H](Cc1ccccc1)NC(=O)[C@@H](Cc1ccccn1)NC(=O)C1CCC(F)(F)CC1 [Compound 217] | 27.3 ± 1.2 nM | 
40 | O=C(NCc1ccccn1)C(=O)[C@@H](Cc1ccccc1)NC(=O)[C@@H](Cc1cccnc1)NC(=O)C1CCC(F)(F)CC1 [Compound 218] | 23.4 ± 0.8 nM | 
41 | CC(C)C[C@@H](NC(=O)C1CCC(F)(F)CC1)C(=O)N[C@H](Cc1ccccc1)C(=O)C(=O)NCc1ccccn1 [Compound 219] | 13.4 ± 1.7 nM | 
42 | O=C(NCc1ccccn1)C(=O)[C@@H](Cc1ccccc1)NC(=O)[C@@H](CC1CCCCC1)NC(=O)C1CCC(F)(F)CC1 [Compound 220] | 13.9 ± 0.1 nM | 
43 | CC[C@@H](C)[C@@H](NC(=O)C1CCC(F)(F)CC1)C(=O)N[C@H](Cc1ccccc1)C(=O)C(=O)NCc1ccccn1 [Compound 221] | 15.6 ± 1.2 nM | 
44 | COC[C@@H](NC(=O)C1CCC(F)(F)CC1)C(=O)N[C@H](Cc1ccccc1)C(=O)C(=O)NCc1ccccn1 [Compound 222] | 16.5 ± 1.5 nM | 
45 | O=C(NCc1ccccn1)C(=O)[C@@H](Cc1ccccc1)NC(=O)[C@H](NC(=O)C1CCC(F)(F)CC1)C1CCCCC1 [Compound 223] | 11.1 ± 0.3 nM | 
46 | CC(C)(C)C[C@@H](NC(=O)C1CCC(F)(F)CC1)C(=O)N[C@H](Cc1ccccc1)C(=O)C(=O)NCc1ccccn1 [Compound 224] | 25.8 ± 1.3 nM | 
